Laboratory results published in PMC5453931, “Cathelicidin-trypsin inhibitor loop conjugate represents a promising antibiotic candidate with protease stability” (Scientific Reports, 2017).
Where a SMILES comes first, the peptide text is derived from it. Bridges are numbered along the chain shown (N, C = ends).

What was measured:
Raw264.7 cells = assay: LPS-induced iNOS, cytokine and chemokine transcription (q-PCR); assay type: cell-based, Murine; conditions: LPS 100 ng/mL, 6 h, q-PCR normalized to GAPDH; Fig. 6
Experimental: Murine macrophage Raw264.7 cells (3 × 10^5/well) were treated with series concentrations of hybrid peptides and LPS (100 ng/mL) for 6 h. Total RNA was isolated using RNAiso Plus kit (Takara) and synthesized into cDNA with PrimeScript Reverse Transcriptase (Takara). The cDNA was assessed by q-PCR using SYBR green master mix kit (Takara) on a Realplex Mastercycler (Eppendorf, Germany). Gene expression was calculated after being normalized to those of GAPDH levels by Δ Δ Ct method27. The accuracy of the amplification reactions was achieved by melt curve analysis.

E. coli ATCC25922 = assay: Thermal stability of antimicrobial activity; assay type: physicochemical; conditions: 2 mg/mL in water, up to 96 h, E. coli ATCC25922, 1 × MIC, Fig. 3D
Experimental: Thermal stability of Hc-3 and hybrid peptides was examined according to the method described in our previous work[31]. Peptide was dissolved in sterile deionized water to a final concentration of 2 mg/mL, and incubated at 37 °C for 0–96 h. At each time point, the bacteria colonies of E. coli ATCC25922 survived 1 × MIC were measured.

trypsin or proteinase K = conditions: peptide:protease 300/1 mol/mol, 30 min, 37 °C, then 1 × MIC 2 h with E. coli, S. aureus, C. albicans; colony counting; Fig. 3E
E. coli 08040726 = assay: Bacterial killing kinetic assay, colony counting; assay type: cell-based
Experimental: The bacterial killing kinetics of the hybrid peptides against E. coli 08040726 was determined by counting the changes in the viable bacterial clones after peptide treatment. The experiment was carried out according to the method described previously with minor modifications. Fresh colonies of the bacteria were incubated in MH broth at 37 °C for 12 h and diluted to 10^6 CFU/in fresh MH broth. The hybrid peptide was added to the bacterial suspension with a final concentration of 1x and 5x corresponding MICs, and incubated at 37 °C for 0, 10, 20, 30, 45, 60, 90, 120, and 180 mins. At each time point, aliquots (50 μL) were removed and diluted with fresh MH broth for 1000 times. […] of the dilutions were coated on MH agar plates, incubated overnight at 37 °C, and the viable colonies were counted. Ampicillin was used as positive control and sterile deionized water was used as negative control.

[1] = 20% fresh human serum, 37 °C, colonies surviving 1 × MIC, Fig. 3B
E. coli = assay: pH stability of antimicrobial activity; assay type: physicochemical; conditions: HCl or NaOH solution, 2 mg/mL, 37 °C, 24 h, then 1 × MIC for 2 h, CFU; Fig. 3C
Experimental: Peptide was dissolved in HCl solution or NaOH solution to a final concentration of 2 mg/mL with pH value ranging from 1.0 to 11.0, and incubated at 37 °C for 24 h[64]. […] The diluted aliquots were seeded at MH agar plates and the CFU were scored after 24 h incubation at 37 °C. The number of CFU grown out of MH broth without peptide was served as control.

trypsin [2] = assay: Protease stability, RP-HPLC analysis of degradation; assay type: in vitro ADME
Experimental: To further examine the stability of TIH3F incubated with enzymes (trypsin and protease K) over time, the LC analysis of peptide degradation over a series of time spans (0, 6, 12, 24 h) was performed. TIH3F and protease solution were prepared in 0.1 M NH4HCO3 buffer (pH 8.2) to final molar ratio of 300:1, and incubated at 37 °C for 6, 12, and 24 h, respectively. Then 150 μL aliquots were taken at given time intervals, diluted with 150 μL of water/acetonitrile (60/40 v/v) containing 2% TFA, and analyzed by RP-HPLC (Thermo Scientific Syncronis C18 column, 250 mm × 4.6 mm, 5 μm), eluted with acetonitrile/water (containing 0.1% TFA) mixture of linear gradient concentration.

trypsin [3] = assay: Trypsin inhibition assay (NBLAN hydrolysis, Dixon method); assay type: biochemical; conditions: 50 mM Tris–HCl pH 7.8, trypsin 0.1 mg/mL, 5 min pre-incubation at 37 °C, substrate NBLAN 48, 96, 192 μg/mL, 405 nm
Method in brief: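 Trypsin (0.1 mg/mL final) pre-incubated 5 min at 37 °C with hybrid peptide at […] final, in 50 mM Tris–HCl, pH 7.8, at room temperature. Reaction started with NBLAN at 48, 96 or 192 μg/mL final; p-nitroaniline monitored continuously at 405 nm. Ki determined by the Dixon method.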

[4] = tested on: established C. albicans biofilm; assay: Biofilm disruption assay, established biofilm (XTT, PI/SYBR Green I); assay type: cell-based
Experimental: TIH3F that has the best antifungal activity among the four peptides was chosen to examine the effect on the C. albicans biofilm formation and the established biofilm using previously described method with minor modifications. In the biofilm inhibition assay, after the incubation at 35 °C, C. Albicans was diluted to 1 × 10^6 CFU/mL in RPMI-1640 medium. Then 2 mL culture was added to each well of 6-well plates with coverslips at the bottom, and incubated at 35 °C in a humid chamber for 3 h. Non-adherent cells were then washed away by PBS, and series concentrations of TIH3F (0, 1, 2, 4 μg/mL) were added into the plate, with amphotericin B as control. The formation of the biofilm was determined by the XTT Cell Proliferation and Cytotoxicity Kit (KeyGEN BioTECH, Nanjing, China) after 36-h incubation. In the biofilm disruption assay, the biofilm was preformed as described above but with a longer incubation time up to 72 h. Then TIH3F and amphotericin B of series concentrations (0, 2.5, 5, 10, 25, 50 μg/mL) was added after non-adherent cells were washed out. The measurement of remaining biofilm was then determined. In order to further confirm the antifungal effect of TIH3F against C. albicans encased in biofilms, the established biofilm was treated with TIH3F (0, 5, 50 μg/mL), washed three times with PBS, and finally stained with 1 mL 1000-fold diluted PI/SYBR Green I at 30 °C in the dark for 20 min. After washing with PBS, the plate was immediately photographed with fluorescence microscope.

In the case of CC[C@H](C)[C@@H]1NC(=O)[C@H](CO)NC(=O)[C@H](CCCCN)NC(=O)[C@H]([C@@H](C)O)NC(=O)[C@H](Cc2c[nH]c3ccccc23)NC(=O)[C@@H](N)CSSC[C@@H](C(=O)N[C@@H](CCCCN)C(=O)N[C@@H](Cc2ccccc2)C(=O)N[C@@H](Cc2ccccc2)C(=O)N[C@@H](CCCCN)C(=O)N[C@@H](CCCNC(=N)N)C(=O)N[C@@H](Cc2ccccc2)C(=O)N[C@@H](Cc2ccccc2)C(=O)N[C@@H](CCCCN)C(=O)N[C@@H](CO)C(=O)N[C@@H](Cc2ccccc2)C(=O)N[C@@H](CCCNC(=N)N)C(=O)N[C@@H](CCCNC(=N)N)C(=O)N[C@@H](C)C(=O)N[C@@H](Cc2ccccc2)C(=O)N[C@@H](CCCCN)C(=O)N[C@@H](CCCCN)C(=O)N[C@@H](Cc2ccccc2)C(N)=O)NC(=O)[C@@H]2CCCN2C(=O)[C@H](CCCCN)NC(=O)[C@@H]2CCCN2C(=O)[C@@H]2CCCN2C1=O [TIH3F] (H-CWTKSIPPKPCKFFKRFFKSFRRAFKKF-NH2; disulfide 1-11), the “LPS-induced mRNA of iNOS, TNF-α, IL-1β, IL-6, MCP-1” value (Raw264.7 cells) is reported as “strongest inhibitory effect”, the “antimicrobial activity after incubation at 37 °C” value (E. coli ATCC25922) is reported as “maintained its potent antimicrobial activity” and the “antimicrobial activity after treatment with trypsin or proteinase K” value (trypsin or proteinase K) is reported as “negligible antimicrobial activity decrease”. For the same compound, the “time of killing toward E. coli” value (E. coli 08040726; 1xMIC) was at most 2 h, the “time of killing toward E. coli” value (E. coli 08040726; 5xMIC) was at most 0.5 h and the “kill (%) after incubation with human serum” value ([1]; 6 h) was 75%. For the same compound, the “kill (%) / antimicrobial activity kept after incubation with human serum” value ([1]; 36 h) was 65%, the “antimicrobial activity against E. coli after incubation at pH 1.0–11.0” value (E. coli) was “unaffected” and the “RP-HPLC absorbance of the peptide before trypsin incubation” value (trypsin [2]; pure peptide, 0 h, C18 RP-HPLC, Fig. 4E) was 600 mAU. For the same compound, the degradation by trypsin (trypsin [2]; trypsin, 300:1, 0.1 M NH4HCO3 pH 8.2, 37 °C, 6 h, RP-HPLC, Fig. 4) was “a little degradation”, the “intact peptide remaining after trypsin incubation” value (trypsin [2]; trypsin, 300:1, 0.1 M NH4HCO3 pH 8.2, 37 °C, up to 24 hours, RP-HPLC, Fig. 4) was “remained half” and the “RP-HPLC absorbance of the peptide after trypsin incubation” value (trypsin [2]; trypsin, peptide:protease 300:1, 0.1 M NH4HCO3 pH 8.2, 37 °C, 6 h, C18 RP-HPLC, Fig. 4F) was 500 mAU. The Ki (trypsin [3]) was 1500 nM, the “damage of established C. albicans biofilm” value ([4]; 5 μg/mL, biofilm preformed 72 h, XTT metabolic activity, Fig. 2B) was 50% and the “killing of C. albicans in preformed biofilm” value ([4]; 50 μg/mL, PI/SYBR Green I staining, fluorescence microscopy, Fig. 2C) was “destroy all of the cell membranes”.
